# In patent US20230255953A1, “USE OF ROLUPERIDONE IN PREVENTING RELAPSE IN SCHIZOPHRENIA PATIENTS” (Minerva Neurosciences, Inc., priority 2022, published 2023):
# Tested on: patients with negative symptoms of schizophrenia
# Assay: Integrated analysis of Studies #1 and #2 (pooled ITT): PANSS-derived scores (NSFS, total, positive and negative subscales), DB, OL and whole study
# Assay type: in vivo, human
# Parameters: key to NSFS Score change from Baseline, Median: change from Baseline in PANSS NSFS points; higher score = more severe
# Details: for NSFS Score change from Baseline, LS mean (SE) / NSFS Score change from Baseline, Mean (SD) / NSFS Score change from Baseline, Median / NSFS Score, Difference (95% CI) in LS mean (vs placebo) / PANSS Negative Subscale Score change from Baseline, LS mean (SE) / PANSS Negative Subscale Score change from Baseline, Mean (SD) / PANSS Negative Subscale Score change from Baseline, Median / PANSS Negative Subscale Score, Difference (95% CI) in LS mean (vs placebo) / PANSS Total Score change from Baseline, LS mean (SE) / PANSS Total Score change from Baseline, Mean (SD) / PANSS Total Score change from Baseline, Median / PANSS Total Score, Difference (95% CI) in LS mean (vs placebo): DB
# Method: The primary integrated analysis of the efficacy of Roluperidone compared with placebo for the treatment of negative symptoms of schizophrenia is based on the change from Baseline in the PANSS Marder's negative symptoms factor score (in this document referred to as NSFS) to Week 12. Efficacy is also supported by the analysis of change from Baseline in the PSP Total score and the CGI-S to Week 12.
# The PANSS was assessed at the time points described in Table 4.
# The PANSS-derived endpoints used in these studies and the integrated analyses are described in Table 5A and a summary of the individual PANSS items used by physicians and clinicians to measure the severity of the symptoms in a schizophrenia patient is provided in Table 5B. The scale is divided into three parts, a positive scale, which provides a “PANSS positive subscore”, a negative scale, which provides a “PANSS negative subscore”, and general psychopathology scale. The sum of these three parts provides a PANSS total score, which ranges from 30 to 210 (where higher scores indicate more severe symptoms). (See Kay, S. R., et al. “The positive and negative syndrome scale (PANSS) for schizophrenia,” Schizophr Bulletin, 13(2), 261-276 (1987) and Gopal, S., et al. “Improvement of Negative Symptoms in Schizophrenia with Paliperidone Palmitate 1-Month and 3-Month Long-Acting Injectables: Results from a Phase 3 Non-Inferiority Study” Neuropsychiatric Disease and Treatment, 681-690, DOI: 10.2147/NDT.5226296, both of which are incorporated by reference.)
# The Efficacy data from Study Nos. 1 and 2 were pooled. The majority of patients in the pooled ITT population completed the DB period (502 patients overall, 66.3%), with similar rates in each treatment group (placebo: 69.8%, 32 mg Roluperidone: 65.3%, and 64 mg Roluperidone: 63.8%) (Table 12). The majority (62.7%) of those who completed the DB period entered the OL period. The most common reason for discontinuation during the DB period among patients overall was withdrawal of consent (15.6%), followed by adverse events (7.3%) and lack of efficacy (5.4%) (Table 12). […] Approximately twice as many patients in the Roluperidone groups (32 mg: 8.5%; 64 mg: 9.1%) discontinued due to adverse events compared with patients in the placebo group (4.3%). More patients in the placebo group discontinued due to lack of efficacy (6.7%) than in the Roluperidone groups (32 mg: 4.4%; 64 mg: 5.1%). The low number of patients who discontinued due to lack of efficacy or withdrawal of consent probably reflects a low level of worsening of positive symptoms.
# The integrated analysis supporting the efficacy of Roluperidone as a treatment for the negative symptoms of schizophrenia in adults is presented below.
substance,measurement,setting,value
"1H-Isoindol-1-one,2-[ [1-[2-(4-fluorophenyl)-2-oxoethyl]-4-piperidinyl]methyl]-2,3-dihydro-, hydrochloride, hydrate (1:1:2) [Roluperidone]","PANSS positive subscale score, LS mean change from Baseline compared with placebo","32 mg, Week 12, pooled ITT",−0.3
same,"PANSS total score, LS mean change from Baseline compared with placebo","32 mg, Week 12, pooled ITT",−1.9
same,"Patients with 20% Reduction in NSFS at Week 12, percent","32 mg, responder analysis",31%
same,"Patients with 20% Reduction in PANSS Total Score at Week 12, percent","32 mg, responder analysis",14%
same,Number of Patients with 20% Reduction in PANSS Total Score at Week 12,"32 mg, responder analysis, n/N",24/167
same,Number of Patients with 20% reduction in NSFS at Week 12,"32 mg, responder analysis, n/N",51/167
same,"NSFS Score change from Baseline, LS mean (SE)","64 mg, Week 2, pooled ITT",−1.4 (0.15)
same,"NSFS Score change from Baseline, Mean (SD)","64 mg, Week 2, pooled ITT",−1.4 (2.34)
same,"NSFS Score change from Baseline, Median","64 mg, Week 2, pooled ITT",−1.0
same,"NSFS Score, Difference (95% CI) in LS mean (vs placebo)","64 mg, Week 2, pooled ITT","−0.4 (−0.8, −0.0)"
same,"PANSS Negative Subscale Score change from Baseline, LS mean (SE)","64 mg, Week 2, pooled ITT",−1.4 (0.14)
same,"PANSS Negative Subscale Score change from Baseline, Mean (SD)","64 mg, Week 2, pooled ITT",−1.4 (2.28)
same,"PANSS Negative Subscale Score change from Baseline, Median","64 mg, Week 2, pooled ITT",−1.0
same,"PANSS Negative Subscale Score, Difference (95% CI) in LS mean (vs placebo)","64 mg, Week 2, pooled ITT",−0.4
same,"PANSS Total Score change from Baseline, LS mean (SE)","64 mg, Week 2, pooled ITT",−2.2 (0.44)
same,"PANSS Total Score change from Baseline, Mean (SD)","64 mg, Week 2, pooled ITT",−2.2 (7.15)
same,"PANSS Total Score change from Baseline, Median","64 mg, Week 2, pooled ITT",−2.0
same,"PANSS Total Score, Difference (95% CI) in LS mean (vs placebo)","64 mg, Week 2, pooled ITT",−0.9
same,"PANSS Positive Subscale Score change from Baseline, LS mean (SE)","64 mg, Week 2, pooled ITT",−0.1 (0.17)
same,"PANSS Positive Subscale Score change from Baseline, Mean (SD)","64 mg, Week 2, pooled ITT",−0.1 (2.85)
same,"PANSS Positive Subscale Score change from Baseline, Median","64 mg, Week 2, pooled ITT",0.0
same,"PANSS Positive Subscale Score, Difference (95% CI) in LS mean (vs placebo)","64 mg, Week 2, pooled ITT",−0.1
same,"NSFS Score change from Baseline, LS mean (SE)","64 mg, Week 4, pooled ITT",−2.5 (0.19)
same,"NSFS Score change from Baseline, Mean (SD)","64 mg, Week 4, pooled ITT",−2.6 (2.73)
same,"NSFS Score change from Baseline, Median","64 mg, Week 4, pooled ITT",−2.0
same,"NSFS Score, Difference (95% CI) in LS mean (vs placebo)","64 mg, Week 4, pooled ITT",−1.1
same,"PANSS Negative Subscale Score change from Baseline, LS mean (SE)","64 mg, Week 4, pooled ITT",−2.6 (0.19)
same,"PANSS Negative Subscale Score change from Baseline, Mean (SD)","64 mg, Week 4, pooled ITT",−2.8 (2.82)
same,"PANSS Negative Subscale Score change from Baseline, Median","64 mg, Week 4, pooled ITT",−2.0
same,"PANSS Negative Subscale Score, Difference (95% CI) in LS mean (vs placebo)","64 mg, Week 4, pooled ITT",−1.2
same,"PANSS Total Score change from Baseline, LS mean (SE)","64 mg, Week 4, pooled ITT",−4.5 (0.52)
same,"PANSS Total Score change from Baseline, Mean (SD)","64 mg, Week 4, pooled ITT",−5.1 (7.16)
same,"PANSS Total Score change from Baseline, Median","64 mg, Week 4, pooled ITT",−5.0
same,"PANSS Total Score, Difference (95% CI) in LS mean (vs placebo)","64 mg, Week 4, pooled ITT",−2.5
same,"PANSS Positive Subscale Score change from Baseline, LS mean (SE)","64 mg, Week 4, pooled ITT",−0.2 (0.18)
same,"PANSS Positive Subscale Score change from Baseline, Mean (SD)","64 mg, Week 4, pooled ITT",−0.4 (2.49)
same,"PANSS Positive Subscale Score change from Baseline, Median","64 mg, Week 4, pooled ITT",−1.0
same,"PANSS Positive Subscale Score, Difference (95% CI) in LS mean (vs placebo)","64 mg, Week 4, pooled ITT",−0.5
same,"NSFS Score change from Baseline, LS mean (SE)","64 mg, Week 8, pooled ITT",−3.4 (0.23)
same,"NSFS Score change from Baseline, Mean (SD)","64 mg, Week 8, pooled ITT",−3.6 (3.28)
same,"NSFS Score change from Baseline, Median","64 mg, Week 8, pooled ITT",−3.0
same,"NSFS Score, Difference (95% CI) in LS mean (vs placebo)","64 mg, Week 8, pooled ITT",−1.2
same,"PANSS Negative Subscale Score change from Baseline, LS mean (SE)","64 mg, Week 8, pooled ITT",−3.7 (0.23)
same,"PANSS Negative Subscale Score change from Baseline, Mean (SD)","64 mg, Week 8, pooled ITT",−3.9 (3.27)
same,"PANSS Negative Subscale Score change from Baseline, Median","64 mg, Week 8, pooled ITT",−3.0
same,"PANSS Negative Subscale Score, Difference (95% CI) in LS mean (vs placebo)","64 mg, Week 8, pooled ITT",−1.3
same,"PANSS Total Score change from Baseline, LS mean (SE)","64 mg, Week 8, pooled ITT",−5.7 (0.65)
same,"PANSS Total Score change from Baseline, Mean (SD)","64 mg, Week 8, pooled ITT",−6.8 (8.79)
same,"PANSS Total Score change from Baseline, Median","64 mg, Week 8, pooled ITT",−6.0
same,"PANSS Total Score, Difference (95% CI) in LS mean (vs placebo)","64 mg, Week 8, pooled ITT",−2.5
same,"PANSS Positive Subscale Score change from Baseline, LS mean (SE)","64 mg, Week 8, pooled ITT",−0.3 (0.20)
same,"PANSS Positive Subscale Score change from Baseline, Mean (SD)","64 mg, Week 8, pooled ITT",−0.6 (2.61)
same,"PANSS Positive Subscale Score change from Baseline, Median","64 mg, Week 8, pooled ITT",−1.0
same,"PANSS Positive Subscale Score, Difference (95% CI) in LS mean (vs placebo)","64 mg, Week 8, pooled ITT",−0.5
same,"NSFS Score change from Baseline, LS mean (SE)","64 mg, Week 12, pooled ITT",−3.9 (0.26)
same,"NSFS Score change from Baseline, Mean (SD)","64 mg, Week 12, pooled ITT",−4.1 (3.64)
same,"NSFS Score change from Baseline, Median","64 mg, Week 12, pooled ITT",−3.5
same,"NSFS Score, Difference (95% CI) in LS mean (vs placebo)","64 mg, Week 12, pooled ITT",−1.3
same,"PANSS Negative Subscale Score change from Baseline, LS mean (SE)","64 mg, Week 12, pooled ITT",−4.1 (0.27)
same,"PANSS Negative Subscale Score change from Baseline, Mean (SD)","64 mg, Week 12, pooled ITT",−4.4 (3.75)
same,"PANSS Negative Subscale Score change from Baseline, Median","64 mg, Week 12, pooled ITT",−4.0
same,"PANSS Negative Subscale Score, Difference (95% CI) in LS mean (vs placebo)","64 mg, Week 12, pooled ITT",−1.3
same,"PANSS Total Score change from Baseline, LS mean (SE)","64 mg, Week 12, pooled ITT",−6.3 (0.70)
same,"PANSS Total Score change from Baseline, Mean (SD)","64 mg, Week 12, pooled ITT",−7.7 (9.43)
same,"PANSS Total Score change from Baseline, Median","64 mg, Week 12, pooled ITT",−7.0
same,"PANSS Total Score, Difference (95% CI) in LS mean (vs placebo)","64 mg, Week 12, pooled ITT",−2.8
same,"NSFS Emotional Experience Score, Change from Baseline (LS Means [SEM])","64 mg, Week 12, ITT",−1.6 (0.13)
same,"NSFS Emotional Expression Score, Change from Baseline (LS Means [SEM])","64 mg, Week 12, ITT",−2.3 (0.16)
same,"NSFS, Change from Baseline (LS Means [SEM])","64 mg, Week 12, ITT",−3.9 (0.26)
same,"PANSS General Psychopathology Subscale, Change from Baseline (LS Means [SEM])","64 mg, Week 12, ITT",−2.2 (0.37)
same,"PANSS Negative Symptoms Subscale, Change from Baseline (LS Means [SEM])","64 mg, Week 12, ITT",−4.1 (0.27)
same,"PANSS Positive Symptoms Subscale, Change from Baseline (LS Means [SEM])","64 mg, Week 12, ITT",−0.2 (0.21)
same,"PANSS Total Score, Change from Baseline (LS Means [SEM])","64 mg, Week 12, ITT",−6.3 (0.70)
same,"NSFS, LS mean change from Baseline compared with placebo","64 mg, Week 12, normal BMI (<25 kg/m^2) subgroup, pooled ITT",−1.7
same,"NSFS, LS mean change from Baseline compared with placebo","64 mg, Week 12, obese (≥30 kg/m^2) subgroup, pooled ITT",−0.1
same,"NSFS, LS mean change from Baseline compared with placebo","64 mg, Week 12, overweight BMI (25 to <30 kg/m^2) subgroup, pooled ITT",−1.4
same,Patients with high improvement in NSFS (magnitude of change >8),"64 mg, Week 12, pooled",13%
